Measurements reported in patent US11559575B2, “Multi-epitopic peptide compounds and vaccines against leishmaniasis” (INSTITUT DE RECHERCHE POUR LE DEVELOPPEMENT, priority 2018, dated 2023).
Entries after “also recorded” stand apart in the source; their conditions may differ.

Experiments:
[1] = test system: HLA supertypes of class I; assay: Affinity of epitopes for HLA supertypes of class I; format: binding, human; details: for Affinity for the HLA supertypes of class I: H2B-1 epitopes, Table 1; for Affinity for HLA supertypes of class I: LmLRAB (IA, IB, IC) epitopes, Table 2
Source text: HLA molecules are highly polymorphous. This is because there exist more than 2500 HLA proteins of class I (HLA-I) and more than 1000 HLA proteins of class II (HLA-II). However, some of these HLA molecules, close in sequence and in spatial conformation, may have epitopes common to the T cells. The grouping of several thousands of HLA molecules is at the present time described in a little more than 20 or so categories, referred to as “HLA supertypes” having epitopes that are very well preserved for each supertype.

HLA alleles of class I = assay: Affinity of epitopes for HLA alleles of class I; format: binding, human; details: for Affinity for the HLA alleles of class I: H2B-1 epitopes, Table 1; for Concatenation affinity for HLA allele of class I: LmLRAB (IA, IB, IC) epitopes, Table 2
Source text: The multiepitopic peptide compounds (24 to 40-mer), having a high affinity with a maximized number of HLA molecules of class I and of class II, such as the affinities for the alleles HLA of class I and HLA of class II of the epitopes in the peptides of the sequences SEQ ID NO: 22, 23, 65, 66, 69, 73, 77, 96, 97, 137, 138, and 157, 185, have a high immunoprevalent potential corresponding to an optimal vaccine coverage, in particular for the populations concerned. The degree of coverage of the peptide compounds of the invention show a very high added value compared with the peptides of the prior art.

[2] = test system: CD4+ T cells of a naive individual (MPL10); assay: IFN-γ ELISPOT with CD4+ T cells and autologous dendritic cells of a naive individual (long protocol, three stimulations); format: cell-based, human
Procedure: The immunogenicity was evaluated, with combinations of peptides (combination corresponding to the “Pool H”) at 1 μM for each peptide, from samplings of blood of naive individuals and according to a long protocol with at least three successive stimulations. An IFN-γ ELISPOT test for measuring the frequency of the pre-existing naive T cells and the amplitude of the specific naive T repertoire for each peptide, was performed with the CD4+ T cells and the autologous dendritic cells of a naive individual in the presence or absence of the mixture of peptides, or in the presence of each peptide individually. […] The “Pool H” combination was used either with peptides not modified at the amino-terminal end and with amidation of the carboxy-terminal end, or with peptides chemically modified by a palmitoyl tail at the amino-terminal end and with amidation of the carboxy-terminal end.
The evaluation of the immunogenicity properties of peptide compounds according to the invention in naive individuals, persons who have never been in contact with the Leishmania parasite, is an important factor in predicting the efficacy of a peptide vaccine (Kwok WW et al, 2012, Frequency of epitope-specific naive CD4(+) T cells correlates with immunodominance in the human memory repertoire; Castelli F A et al, 2007, Differential capacity of T cell priming in naive donors of promiscuous CD4+ T cell epitopes of HCV NS3 and Core proteins). Immunogenicity is evaluated in vitro by measuring the frequency of the pre-existing naive T cells and the amplitude of the naive T repertoire specific for each compound. The evaluation is carried out using blood samples from naive individuals and in accordance with a long protocol (Castelli F A, et al. 2007 as aforementioned) putting purified T lymphocytes in contact with autologous dendritic cells previously incubated with the peptides of the invention. The combination of peptides used is composed of: SEQ ID NO: 23, SEQ ID NO: 66, SEQ ID NO: 73, SEQ ID NO: 77, SEQ ID NO: 97, SEQ ID NO: 138, SEQ ID NO: 157, SEQ ID NO: 185, SEQ ID NO: B11, SEQ ID NO: B12 and SEQ ID NO: B13. The compounds were synthesized chemically without amino-terminal modification and with carboxy-terminal (peptide-NH2) amidation (NH2). After three successive stimulations at intervals of seven days of the CD4+ T cells of a naive individual (MPL10; Établissement français du sang de Toulouse), an IFN-γ ELISPOT was carried out with the cells in the presence or absence of the mixture of peptides, or in the presence of each compound individually. […] Each positive line responds to at least one of the peptides of the present invention. The MPL10-3 line responds to the peptides SEQ ID NO: 73 and SEQ ID NO: 157. The MPL10-4 line responds to the peptides SEQ ID NO: 23, SEQ ID NO: 73, SEQ ID NO: 77, SEQ ID NO: 97, SEQ ID NO: 138 and SEQ ID NO: 157. The MPL10-7 line responds to the peptides SEQ ID NO: 77, SEQ ID NO: 97 and SEQ ID NO: 157. The MPL10-8 line responds to the peptides SEQ ID NO: 66, SEQ ID NO: 73, SEQ ID NO: 97, SEQ ID NO: 138 and SEQ ID NO: 157. The MPL10-10 line responds to the peptides SEQ ID NO: 66, SEQ ID NO: 73, SEQ ID NO: 77, SEQ ID NO: 97, SEQ ID NO: 138, SEQ ID NO: 157 and SEQ ID NO: 185. And the MPL10-12 line responds to the peptides SEQ ID NO: 66, SEQ ID NO: 157 and SEQ ID NO: 185.
The evaluation of the immunogenicity properties of peptide compounds of the invention in the same naive individual (MPL10) but with chemically synthesized compounds with the addition of a palmitoylated tail at the amino-terminal end and with an NH2 group at the carboxy-terminal end (PAL-peptide-NH2) was also performed. The same combination of peptides as before was used. After three stimulations with the mixture of PAL-peptide-NH2 peptides, an IFN-g ELISPOT was carried out with the cells in the presence or absence of the mixture of peptides, or in the presence of each peptide individually. […]

[3] = MPL10-PAL-2 line, PAL-peptide-NH2
[4] = MPL10-PAL-3 line, PAL-peptide-NH2

| Sequence | Affinity for the HLA supertypes of class I [1] | Affinity for the HLA alleles of class I (HLA alleles of class I) | Affinity for HLA supertypes of class I [1] | Concatenation affinity for HLA allele of class I (HLA alleles of class I) | other results |
| --- | --- | --- | --- | --- | --- |
| MSMSHRTM (Leishmania major) [SEQ ID NO: 11] | HLA-B*08 | HLA-B*08:01 | – | – | – |
| KARYRFAQGEHDIRLPENAFVIARYTQGSSKAGF (Leishmania major) [SEQ ID NO: 73] | – | – | – | – | IFN-γ ELISPOT response of specific line to individual peptide ([2]; MPL10-3 line, peptide-NH2): responds; IFN-γ ELISPOT response of specific line to individual peptide ([2]; MPL10-4 line, peptide-NH2): responds; IFN-γ ELISPOT response of specific line to individual peptide ([2]; MPL10-8 line, peptide-NH2): responds; IFN-γ ELISPOT response of specific line to individual peptide ([2]; MPL10-10 line, peptide-NH2): responds; IFN-γ ELISPOT response of specific line to individual peptide [2, 3]: responds; IFN-γ ELISPOT response of specific line to individual peptide [2, 4]: responds |
| RLPENAFVI (Leishmania major) [SEQ ID NO: 71] | – | – | HLA-A*01,; also recorded: HLA-A*02 | HLA-A*32:01,; also recorded: HLA-A*02:06,; also recorded: HLA-A*02:11,; also recorded: HLA-A*02:12,; also recorded: HLA-A*02:16,; also recorded: HLA-A*02:19 | – |
| RFAQGEHDI (Leishmania major) [SEQ ID NO: 70] | – | – | HLA-A*24 | HLA-A*2403 | – |
| MSMSHRTMKS (Leishmania major) [SEQ ID NO: 13] | HLA-A*03 | HLA-A*03:01,; also recorded: HLA-A*11:01 | – | – | – |
| NENNITGGL (MENNITGGL; Leishmania major) [SEQ ID NO: 67] | – | – | HLA-B*44 | HLA-B*40:02,; also recorded: HLA-B*44:02,; also recorded: HLA-B*44:03; also recorded: HLA-B*18:01,; also recorded: HLA-B*40:01, | – |
| NAQMSMMER (Leishmania major) [SEQ ID NO: 14] | HLA-A*03 | HLA-A*68:01,; also recorded: HLA-A*33:01,; also recorded: HLA-A*31:01 | – | – | – |
| ASFRSTEAI (Leishmania major) [SEQ ID NO: 75] | – | – | HLA-A*01,; also recorded: HLA-B*27,; also recorded: HLA-B*58 | HLA-A*32:01,; also recorded: HLA-B*15:03,; also recorded: HLA-B*1517 | – |
| KGRLHSVVGRHLSIVADHMPHLDQ (Leishmania major) [SEQ ID NO: 97] | – | – | – | – | IFN-γ ELISPOT response of specific line to individual peptide ([2]; MPL10-4 line, peptide-NH2): responds; IFN-γ ELISPOT response of specific line to individual peptide ([2]; MPL10-7 line, peptide-NH2): responds; IFN-γ ELISPOT response of specific line to individual peptide ([2]; MPL10-8 line, peptide-NH2): responds; IFN-γ ELISPOT response of specific line to individual peptide ([2]; MPL10-10 line, peptide-NH2): responds; IFN-γ ELISPOT response of specific line to individual peptide [2, 4]: responds |
| MMERICTEA (Leishmania major) [SEQ ID NO: 5] | HLA-A*02 | HLA-A*02:03,; also recorded: HLA-A*02:01 | – | – | – |
| MSMSHRTMKSMSHRTMKIKAINAQMSMMERICTEAA (Leishmania major) [SEQ ID NO: 22] | – | – | – | – | IFN-γ ELISPOT response of specific line to individual peptide [2, 3]: responds |
